In data set [1] the target is T1, GPR40 (Homo sapiens, UniProt O14842).
T1 construct: host or cells: HEK293 (ChemiBrite cell line)
The experiment in a line: Promoter-luciferase assay to measure GPR40 activation (HEK293 cells stably transfected with GPR40 cDNA). It counts as cell-based. To be noted: HEK293 cells stably transfected with GPR40, 5xSRE-luciferase. As for the experimental part: GPR40 activation was measured in HEK293 cells stably transfected with GPR40 cDNA (ChemiBrite cell lines from Millipore, US). These cells were transiently transfected with a pGL2 (Promega Inc.) plasmid having a 5×SRE sequence, cloned 5′ of a luciferase gene along with a β-galactosidase plasmid as normalizing control. Briefly, 35000 cells/well were seeded in a 96 well plates. After overnight incubation at 37° C., the cells were washed with PBS and transfected with the 5×-SRE-Luciferase plasmid and the β-galactosidase plasmid. 6 h post transfection, media was removed and replaced with fresh media with different concentration of drugs and incubated for 16 more hours. The cells were then lysed in 50 μL of Glo-Lysis buffer (Promega) for 30 min at room temperature. The cells were then centrifuged and lysates were collected. Luciferase activity was measured by adding 100 μL of luciferase substrate (Promega) in 20 μL of lysate and measuring the luminescence in luminometer. The […] activity was also measured by adding 20 μL of lysates with 20 μL of β-galactosidase buffer (Promega) and monitoring the absorbance at 415 nm. Luciferase values were divided by β-galactosidase values to normalize transfection efficiency (Table 2)

Data set [2] concerns the target T1, GPR40. The experiment in a line: Intracellular Ca2+ flux fluorescent assay (FLIPR). It counts as cell-based. As for the experimental part: To determine the EC50 of the compounds on intracellular Ca^2+ flux using a fluorescent assay (FLIPR)
GPR40 expressing stable cells were seeded at 25,000 numbers/well. 50 μL/well of assay buffer (20 mM HEPES+1×HBSS) was added to the cells and the cells were cultured for 20 min at 37° C. Cells were loaded with 50 μL/well of Calcium 5 dye and cultured for 45 min at 37° C.
The cells were challenged with compounds at a top concentration of 1000 nM (1:3 step down dilution—10 points). Intracellular Calcium flux was assessed by use of Screen Works 3.1 tool and statistical analysis was carried using Graph Pad Prism 4

A further data set concerns n-STZ rat model. The experiment in a line: Oral glucose tolerance test in n-STZ rat model. It counts as in vivo, Wistar rat. The following applies: for % improvement in AUC glucose vs. control: n-STZ rat; for ED50: po, n-STZ rat OGTT model. As to the method:
Primary Screening Protocol for GRP40 agonist test compounds in n-STZ rat model
Wistar rat pups of 1-2 day old injected with Streptozotocin (STZ) at 120 mg/kg dose by intraperitoneal route. All pups allowed grow normally and at the age of 12-14 week they were screen for glucose intolerance by performing the oral glucose tolerance test by tail clip method using glucometer. Animals showing glucose intolerance were selected for evaluation of test compound. Three to seven days of rest period animals were kept on overnight fasting. […] Animals were administered with test compound and then 15-60 min after the compound administration “O” min blood glucose levels were measured and immediately glucose load at 2 g/kg was administered orally. Blood glucose levels were measured at 30, 60 and 120 min after glucose load using by tail clip method using glucometer. Blood was also collected at 10 min after glucose load for measurement of insulin levels. Glucose area under the curve (AUC) was calculated using Graph Pad Prism software and % reduction in AUC-glucose vs vehicle treated control was calculated (Table 3).

A short description of the next data set: Pharmacokinetics in rats. The following applies: rat, in vivo; for MRT: read-out: Mean residence time; for Vd: read-out: Vss; for bioavailability: po 3 mg/Kg vs iv 1 mg/Kg.
The mark [3] stands for this setting: read-out: EC50 in Luciferase assay.
Setting [4] is: GPR40 expressing stable cells, intracellular Ca2+ flux, read-out: EC50 in FLIPR assay.
Where [5] appears, read: iv 1 mg/Kg, read-out: T1/2, iv (converted).
[6] abbreviates: po 3 mg/Kg, read-out: T1/2, po (converted).

The values below come from patent publication US10011609B2, “Heterocyclic compounds” (CADILA HEALTHCARE LIMITED, priority 2013, dated 2018).

Read-outs that look alike come from different tables or passages of the source.

T1 sequence (O14842 whole entry, species assumed): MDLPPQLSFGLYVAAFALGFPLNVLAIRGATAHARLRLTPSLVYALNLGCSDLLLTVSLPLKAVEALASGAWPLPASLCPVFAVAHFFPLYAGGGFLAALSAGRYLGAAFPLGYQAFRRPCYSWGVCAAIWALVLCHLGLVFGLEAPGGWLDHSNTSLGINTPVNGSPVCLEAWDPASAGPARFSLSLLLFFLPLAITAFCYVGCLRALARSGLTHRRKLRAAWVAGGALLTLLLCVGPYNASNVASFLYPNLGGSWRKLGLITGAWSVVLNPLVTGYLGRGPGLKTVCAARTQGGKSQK

A word on the EC50: it is the midpoint of the concentration-response curve. In the case of `CC#C[C@@H](CC(=O)O)c1ccc(OCc2cccc(CN3Cc4cnn(C)c4C3)c2)cc1` [Compound 22, (S)-3-(4-((3-((1-Methylpyrrolo[3,4-c]pyrazol-5(1H,4H,6H)-yl)methyl)benzyl)oxy)phenyl)hex-4-ynoic acid], the EC50 at GPR40 [1] (setting [3]) was 31.5 nM; at GPR40 [2] (setting [4]), 36.3 nM.

For the compound `CC#C[C@@H](CC(=O)[O][Ca][O]C(=O)C[C@H](C#CC)c1ccc(OCc2cccc(CN3CCc4nc(C)sc4C3)c2)cc1)c1ccc(OCc2cccc(CN3CCc4nc(C)sc4C3)c2)cc1` [Compound 17, calcium (S)-3-(4-((3-((2-methyl-6,7-dihydrothiazolo[4,5-c]pyridin-5(4H)-yl)methyl)benzyl)oxy)phenyl)hex-4-ynoate(S)-3-(4-((3-((2-methyl-6,7-dihydrothiazolo[4,5-c]pyridin-5(4H)-yl)methyl)benzyl)oxy)phenyl)hex-4-ynoate], the EC50 at GPR40 [1] (EC50 in Luciferase assay) worked out at 4.7 nM; on GPR40 [2] it was 10.2 nM. In addition, the figures for the “% improvement in AUC glucose vs. control” value with n-STZ rat model (1 mg/Kg per oral) and in the data set on n-STZ rat model (10 mg/Kg per oral) were 37.1% and 44.7%, respectively.

As to `CC#C[C@@H](CC(=O)O)c1ccc(OCc2cccc(CN3CCc4sc(Br)cc4C3)c2)cc1` [Compound 19, Calcium (S)-3-(4-((3-((2-bromo-6,7-dihydrothieno[3,2-c]pyridin-5(4H)-yl)methyl)benzyl)oxy)phenyl)hex-4-ynoate], the EC50 on GPR40 [2] (setting [4]) came out at 2.32 nM.

The term ED50 denotes the dose that gives a 50% effect, or the effect in half of the subjects. What is called AUC(0-t) is exposure summed from dosing to a finite time, without extrapolation to infinity. For orientation: clearance means the rate of elimination divided by the concentration. High values mean efficient removal, low ones inefficient removal. The term Cmax denotes the peak of the concentration-time curve. What is called Tmax is the time at which the peak concentration occurs. One may read the bioavailability as dose-corrected exposure relative to a reference, in per cent. Consider `CC#C[C@@H](CC(=O)[O][Ca][O]C(=O)C[C@H](C#CC)c1ccc(OCc2cccc(CN3CCc4oc(C5CC5)nc4C3)c2)cc1)c1ccc(OCc2cccc(CN3CCc4oc(C5CC5)nc4C3)c2)cc1` [Compound 64, Calcium (S)-3-(4-((3-((2-cyclopropyl-6,7-dihydrooxazolo[4,5-c]pyridin-5(4H)-yl)methyl)benzyl)oxy)phenyl)hex-4-ynoate], for which, at GPR40 [1] (EC50 in Luciferase assay), the EC50 came out at 1.2 nM. For the same compound, in the data set with n-STZ rat model (1 mg/Kg per oral), the “% improvement in AUC glucose vs. control” value is reported as 46%. Moreover, in the data set on n-STZ rat model (10 mg/Kg per oral), the “% improvement in AUC glucose vs. control” value was found to be 47%. In the data set on n-STZ rat model, this compound came in with an ED50 of 0.09 mg/kg. For the same compound, in “Pharmacokinetics in rats” (iv 1 mg/Kg), the AUC(0-t) stood at 56100 ± 4350 ng·h/mL, the C0 was found to be 10200 ± 1540 ng/mL, the clearance came out at 0.27 ± 0.03 mL/min/kg and the MRT was determined as 10.1 ± 1.36 h. For the same compound, the Vd in “Pharmacokinetics in rats” (iv 1 mg/Kg) turned out to be 0.16 ± 0.01 L/kg. Also, the half-life in the data set “Pharmacokinetics in rats” (setting [5]) is 7.77 ± 1.07 h. In the data set “Pharmacokinetics in rats” (po 3 mg/Kg), the peak level (Cmax) was 8060 ± 2190 ng/mL, the Tmax worked out at 2 h and the MRT is 6.59 ± 0.93 h. Moreover, in the data set “Pharmacokinetics in rats”, the bioavailability is 45%. Besides, in the data set “Pharmacokinetics in rats” (setting [6]), the half-life is 4.51 ± 0.61 h.

On to `CC#C[C@@H](CC(=O)[O][Ca][O]C(=O)C[C@H](C#CC)c1ccc(OCc2cccc(CN3CCc4sc(C)cc4C3)c2)cc1)c1ccc(OCc2cccc(CN3CCc4sc(C)cc4C3)c2)cc1` [Compound 16, calcium(S)-3-(4-((3-((2-methyl-6,7-dihydrothieno[3,2-c]pyridin-5(4H)-yl)methyl)benzyl)oxy)phenyl)hex-4-ynoate(S)-3-(4-((3-((2-methyl-6,7-dihydrothieno[3,2-c]pyridin-5(4H)-yl)methyl)benzyl)oxy)phenyl)hex-4-ynoate], for which the response on GPR40 [1] (EC50 in Luciferase assay) was half-maximal at 4.6 nM (EC50). In addition, the “% improvement in AUC glucose vs. control” value with n-STZ rat model (1 mg/Kg per oral) came to 44.6%. In the data set on n-STZ rat model (10 mg/Kg per oral), the “% improvement in AUC glucose vs. control” value was determined as 59.6%. In the data set on n-STZ rat model, this compound returned an ED50 of 0.05 mg/kg. Moreover, in “Pharmacokinetics in rats” (iv 1 mg/Kg), the AUC(0-t) was determined as 3180 ± 400 ng·h/mL, the C0 was determined as 5020 ± 370 ng/mL, the clearance worked out at 5.26 ± 0.65 mL/min/kg and the MRT was 1.09 ± 0.07 h. For the same compound, the Vd in the data set “Pharmacokinetics in rats” (iv 1 mg/Kg) came to 0.34 ± 0.03 L/kg. For the same compound, in the data set “Pharmacokinetics in rats” (setting [5]), the half-life was 1.45 ± 0.12 h. Besides, in “Pharmacokinetics in rats” (po 3 mg/Kg), the Cmax worked out at 5920 ± 2100 ng/mL, the Tmax worked out at 0.25 h and the MRT was found to be 2.19 ± 0.31 h. The compound further displayed a bioavailability in the data set “Pharmacokinetics in rats” of 83%. In addition, the half-life in “Pharmacokinetics in rats” (setting [6]) is 1.77 ± 0.42 h. At GPR40 [2], the midpoint of the response, the EC50, lay at 2.72 nM.

Regarding `CC#C[C@@H](CC(=O)O)c1ccc(OCc2cccc(CN3CCc4sc(C)cc4C3)c2)cc1` [Compound 7, (S)-3-(4-((3-((2-methyl-6,7-dihydrothieno[3,2-c]pyridin-5(4H)-yl)methyl)benzyl)oxy)phenyl)hex-4-ynoic acid], the EC50 on GPR40 [1] (setting [3]) came out at 1.49 nM; at GPR40 [2] (setting [4]) it was 1.8 nM. Besides, the “% improvement in AUC glucose vs. control” value in the data set on n-STZ rat model (0.1 mg/Kg per oral) is on record as 30.4%; in the data set with n-STZ rat model (1 mg/Kg per oral) it was 46.0%; in the data set on n-STZ rat model (10 mg/Kg per oral) it was 57.0%.

For `CC#C[C@@H](CC(=O)O)c1ccc(OCc2cccc(CN3CCc4sccc4C3)c2)cc1` [Compound 1, (S)-3-(4-((3-((6,7-dihydrothieno[3,2-c]pyridin-5(4H)yl)methyl)benzyl)oxy)phenyl)hex-4-ynoic acid], the half-maximal effective concentration (EC50) is 7.5 nM at GPR40 [1] (setting [3]) and 117 nM at GPR40 [2] (setting [4]).
